Entries after “also recorded” stand apart in the source; their conditions may differ.
Experiments:
CYP2C19 = CYP2C19 (Homo sapiens, UniProt P33261); experiment: CYP2C19 inhibition; settings: 10 μM
[1] = target: T1, human 5-HT2CR (unedited INI isoform) (Homo sapiens, UniProt P28335); settings: h5-HT2CR-CHO cells
T1 sequence (P28335 33-458): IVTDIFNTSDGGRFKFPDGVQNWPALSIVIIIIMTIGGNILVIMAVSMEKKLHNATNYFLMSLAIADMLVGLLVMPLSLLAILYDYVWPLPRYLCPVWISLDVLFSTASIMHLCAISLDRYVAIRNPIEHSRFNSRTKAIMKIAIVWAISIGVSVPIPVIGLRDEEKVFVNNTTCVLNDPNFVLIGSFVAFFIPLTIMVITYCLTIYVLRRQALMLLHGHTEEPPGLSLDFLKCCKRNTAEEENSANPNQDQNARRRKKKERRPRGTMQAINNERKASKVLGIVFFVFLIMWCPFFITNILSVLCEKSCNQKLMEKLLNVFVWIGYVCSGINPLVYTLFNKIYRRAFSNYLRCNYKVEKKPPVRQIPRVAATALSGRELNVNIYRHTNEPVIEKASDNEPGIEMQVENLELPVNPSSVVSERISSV

kinetic solubility = settings: 2 h
CYP1A2 = target: T2, CYP1A2 (Homo sapiens, UniProt P05177); experiment: CYP1A2 inhibition; settings: 10 μM
T2 sequence (P05177 1-516): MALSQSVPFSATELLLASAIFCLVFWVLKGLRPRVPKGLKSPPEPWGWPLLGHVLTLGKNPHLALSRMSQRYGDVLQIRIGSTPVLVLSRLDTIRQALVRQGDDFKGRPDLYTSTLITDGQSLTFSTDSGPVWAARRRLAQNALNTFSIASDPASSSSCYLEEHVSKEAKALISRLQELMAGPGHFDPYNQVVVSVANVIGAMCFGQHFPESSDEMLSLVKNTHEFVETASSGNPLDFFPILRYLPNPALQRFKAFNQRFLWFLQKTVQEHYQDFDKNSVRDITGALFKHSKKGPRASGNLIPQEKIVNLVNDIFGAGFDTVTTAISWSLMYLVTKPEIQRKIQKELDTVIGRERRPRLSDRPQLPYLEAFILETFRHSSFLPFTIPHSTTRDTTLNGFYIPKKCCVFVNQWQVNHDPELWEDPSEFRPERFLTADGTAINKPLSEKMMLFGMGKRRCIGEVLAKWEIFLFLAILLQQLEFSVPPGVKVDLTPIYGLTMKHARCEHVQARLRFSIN

human h5-HT2AR = human h5-HT2AR (Homo sapiens, UniProt P28223); experiment: 5-HT-induced Cai2+ release assay in h5-HT2AR-CHO cells; format: cell-based
Sequence of human h5-HT2AR (P28223 whole entry): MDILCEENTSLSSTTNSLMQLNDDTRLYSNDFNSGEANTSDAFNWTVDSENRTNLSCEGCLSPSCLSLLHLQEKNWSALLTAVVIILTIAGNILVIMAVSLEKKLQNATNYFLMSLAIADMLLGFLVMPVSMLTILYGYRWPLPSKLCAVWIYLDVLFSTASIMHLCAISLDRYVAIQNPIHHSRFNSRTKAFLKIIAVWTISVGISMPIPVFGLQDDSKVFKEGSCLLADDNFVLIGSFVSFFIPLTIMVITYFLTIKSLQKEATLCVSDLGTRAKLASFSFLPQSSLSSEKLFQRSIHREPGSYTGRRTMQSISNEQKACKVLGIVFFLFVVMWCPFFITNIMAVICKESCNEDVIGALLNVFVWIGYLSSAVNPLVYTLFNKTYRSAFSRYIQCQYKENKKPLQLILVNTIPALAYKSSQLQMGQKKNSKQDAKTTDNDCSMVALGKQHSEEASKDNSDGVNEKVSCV

CYP2C9 = CYP2C9 (Homo sapiens, UniProt P11712); experiment: CYP2C9 inhibition; settings: 10 μM
Sequence of CYP2C9 (P11712 whole entry): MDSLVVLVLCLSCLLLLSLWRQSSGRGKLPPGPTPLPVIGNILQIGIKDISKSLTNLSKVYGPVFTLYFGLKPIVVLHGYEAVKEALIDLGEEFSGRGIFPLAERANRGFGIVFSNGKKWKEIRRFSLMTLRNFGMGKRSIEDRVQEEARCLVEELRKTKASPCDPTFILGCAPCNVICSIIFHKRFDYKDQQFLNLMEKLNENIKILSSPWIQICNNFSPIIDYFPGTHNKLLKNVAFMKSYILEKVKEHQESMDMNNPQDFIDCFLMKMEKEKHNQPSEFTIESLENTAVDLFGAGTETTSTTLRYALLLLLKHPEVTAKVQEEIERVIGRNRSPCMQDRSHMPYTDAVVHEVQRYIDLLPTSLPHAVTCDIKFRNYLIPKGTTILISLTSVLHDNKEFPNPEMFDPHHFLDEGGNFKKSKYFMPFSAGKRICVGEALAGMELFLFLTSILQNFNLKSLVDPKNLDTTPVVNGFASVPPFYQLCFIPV

CYP2D6 = CYP2D6 (Homo sapiens, UniProt P10635); experiment: CYP2D6 inhibition; settings: 10 μM
Sequence of CYP2D6 (P10635 whole entry): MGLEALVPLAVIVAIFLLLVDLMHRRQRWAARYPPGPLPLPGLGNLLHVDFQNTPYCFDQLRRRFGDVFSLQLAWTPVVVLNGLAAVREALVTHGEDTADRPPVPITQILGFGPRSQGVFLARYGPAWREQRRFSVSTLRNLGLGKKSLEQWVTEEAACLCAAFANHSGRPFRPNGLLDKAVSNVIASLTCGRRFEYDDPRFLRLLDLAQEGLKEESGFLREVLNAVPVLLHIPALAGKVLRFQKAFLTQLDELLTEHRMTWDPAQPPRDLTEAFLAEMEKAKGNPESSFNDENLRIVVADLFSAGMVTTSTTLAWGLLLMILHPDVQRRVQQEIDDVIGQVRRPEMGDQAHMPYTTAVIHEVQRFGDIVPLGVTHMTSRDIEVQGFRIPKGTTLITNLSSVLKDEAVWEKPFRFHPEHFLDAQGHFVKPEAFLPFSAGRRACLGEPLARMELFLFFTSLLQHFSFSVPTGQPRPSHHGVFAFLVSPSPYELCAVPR

[2] = rat liver microsomal clearance; settings: microsomes
CYP3A4 = CYP3A4 (Homo sapiens, UniProt P08684); experiment: CYP3A4 inhibition; settings: 10 μM
Sequence of CYP3A4 (P08684 whole entry): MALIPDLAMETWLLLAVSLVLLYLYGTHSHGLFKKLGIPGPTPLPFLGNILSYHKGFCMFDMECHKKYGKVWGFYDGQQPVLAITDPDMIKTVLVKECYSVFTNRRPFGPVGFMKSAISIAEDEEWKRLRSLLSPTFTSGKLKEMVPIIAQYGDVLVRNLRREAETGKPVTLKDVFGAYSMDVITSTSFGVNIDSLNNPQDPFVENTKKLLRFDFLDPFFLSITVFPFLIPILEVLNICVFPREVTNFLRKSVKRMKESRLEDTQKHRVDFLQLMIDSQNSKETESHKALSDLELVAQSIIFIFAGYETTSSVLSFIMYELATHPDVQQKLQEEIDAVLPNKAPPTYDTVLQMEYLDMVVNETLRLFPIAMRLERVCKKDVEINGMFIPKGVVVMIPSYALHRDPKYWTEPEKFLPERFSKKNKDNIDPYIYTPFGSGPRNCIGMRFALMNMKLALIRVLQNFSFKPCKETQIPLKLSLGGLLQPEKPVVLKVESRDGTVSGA

α 1B = target: T3, α 1B (Homo sapiens, UniProt P35368); experiment: NIMH PDSP radioligand binding displacement, α 1B; settings: read-out: % inhibition (10 μM)
T3 sequence (P35368 1-520): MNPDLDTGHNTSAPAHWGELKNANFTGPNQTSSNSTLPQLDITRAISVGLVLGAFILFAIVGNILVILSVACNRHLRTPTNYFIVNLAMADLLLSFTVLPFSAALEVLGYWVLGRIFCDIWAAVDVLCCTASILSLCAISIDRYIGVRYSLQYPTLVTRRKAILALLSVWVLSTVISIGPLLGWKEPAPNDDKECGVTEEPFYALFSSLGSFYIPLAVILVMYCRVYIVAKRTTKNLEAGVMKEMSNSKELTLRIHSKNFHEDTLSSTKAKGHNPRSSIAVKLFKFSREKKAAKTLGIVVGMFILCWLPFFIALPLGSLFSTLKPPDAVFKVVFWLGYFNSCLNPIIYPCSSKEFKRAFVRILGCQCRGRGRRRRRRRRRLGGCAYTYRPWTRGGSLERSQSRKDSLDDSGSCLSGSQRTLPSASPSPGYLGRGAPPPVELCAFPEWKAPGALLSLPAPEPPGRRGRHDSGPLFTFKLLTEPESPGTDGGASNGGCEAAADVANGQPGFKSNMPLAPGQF

male Sprague–Dawley rats = experiment: WAY163909 versus saline two-lever drug discrimination assay; format: in vivo, rat; settings: 12 alone 0.5–5 mg/kg ip

Sequence of CYP2C19 (P33261 whole entry, canonical isoform): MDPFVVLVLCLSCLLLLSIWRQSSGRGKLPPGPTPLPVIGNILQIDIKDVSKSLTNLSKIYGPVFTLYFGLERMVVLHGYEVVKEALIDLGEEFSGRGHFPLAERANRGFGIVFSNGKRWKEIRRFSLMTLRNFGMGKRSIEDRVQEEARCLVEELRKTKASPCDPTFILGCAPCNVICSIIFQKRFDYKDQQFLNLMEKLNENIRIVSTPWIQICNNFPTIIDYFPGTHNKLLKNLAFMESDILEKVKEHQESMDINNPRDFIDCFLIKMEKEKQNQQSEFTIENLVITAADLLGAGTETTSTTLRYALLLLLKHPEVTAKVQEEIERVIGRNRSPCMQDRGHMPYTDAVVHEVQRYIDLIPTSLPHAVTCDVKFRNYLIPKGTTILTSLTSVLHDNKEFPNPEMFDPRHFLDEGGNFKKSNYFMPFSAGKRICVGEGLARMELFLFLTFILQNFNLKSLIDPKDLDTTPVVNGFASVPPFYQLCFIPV

Compound: O=C(NC[C@H](O)CO)[C@@H]1C[C@H](c2ccccc2)CCN1 (mixture of isomers) [Compound 12, (2,4-cis)-N-((S)-2,3-Dihydroxypropyl)-4-phenylpiperidine-2-carboxamide]
- CYP2C19 inhibition (CYP2C19): 0.0% (10 μM)
- 5-HT2CR positive allosteric modulator activity (in words) ([1]; 1 nM, 5-HT-induced Cai2+ release): significant PAM activity
- intrinsic agonist activity to induce Cai2+ release prior to addition of 5-HT ([1]; compound added 15 min before 5-HT): did not exhibit intrinsic activity
- kinetic solubility (PBS; pH 7.4) (kinetic solubility): highly soluble
- CYP1A2 inhibition (CYP1A2): 11.8% (10 μM)
- alteration of Emax or EC50 of 5-HT-induced Cai2+ release (in words) (human h5-HT2AR): no alteration in the Emax or EC50; also recorded: inactive as an agonist or allosteric modulator
- CYP2C9 inhibition (CYP2C9): 0.0% (10 μM)
- CYP2D6 inhibition (CYP2D6): 1.9% (10 μM)
- microsomal CLint at 10 μM [2]: < 9.6 µL/min/mg
- CYP3A4 inhibition (CYP3A4): 0.0% (10 μM)
- inhibition at 10 µM (α 1B): -11%
- response rates (in words) (male Sprague–Dawley rats): no change in response rates
- substitution for WAY163909 (lever responding, in words) (male Sprague–Dawley rats; 30 min prior to testing): evoked saline lever responding

From paper PMC8434884 (Journal of medicinal chemistry, 2020)
